The text below walks through data of publication PMC8859982 (Journal of medicinal chemistry, 2018).

Values after ≈ are worked out from the molar mass of the structure shown. Read-outs that look alike come from different tables or passages of the source. Bounds are passed on as bounds.

For series [1] the following is noted: pH 7.4; cited from earlier work.
The next series is described as follows: Thermodynamic solubility. The format is physicochemical. As to conditions: for solubility thermodynamic: PBS, pH 7.4, Thermodynamic solubility, PBS pH 7.4, CLND, each entry a single run.
The conditions of series [2]: clinical trial, cited from earlier work.
In another series the target is DHODH (Homo sapiens, UniProt Q02127). Description: DHODH inhibition assay. The format is biochemical. As to conditions: for LipE: lipophilic ligand efficiency from DHODH pIC50 (M) and cLogP.
Series [3] in a line: Pharmacokinetic study in female CD-1 mice. The format is in vivo.
The subject of another series is MIA PaCa-2. As to conditions: MIA PaCa-2, comparator brequinar.
In the next series the test system is HCT-116. Particulars: HCT-116, comparator brequinar.

Chain of DHODH (Q02127 whole entry): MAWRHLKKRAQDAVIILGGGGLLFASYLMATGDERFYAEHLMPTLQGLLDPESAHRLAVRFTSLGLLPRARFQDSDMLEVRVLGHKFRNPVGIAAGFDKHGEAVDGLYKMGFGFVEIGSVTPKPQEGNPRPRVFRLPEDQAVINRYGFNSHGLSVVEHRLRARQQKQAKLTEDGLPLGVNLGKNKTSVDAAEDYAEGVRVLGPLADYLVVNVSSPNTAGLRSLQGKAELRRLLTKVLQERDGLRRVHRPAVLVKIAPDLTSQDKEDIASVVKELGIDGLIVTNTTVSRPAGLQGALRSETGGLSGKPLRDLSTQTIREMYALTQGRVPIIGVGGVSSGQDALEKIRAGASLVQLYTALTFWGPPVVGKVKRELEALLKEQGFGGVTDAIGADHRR

As for `Cc1c(-c2ccc(-c3ccccc3F)cc2)nc2ccc(F)cc2c1C(=O)O` [Brequinar sodium], the water solubility in series [1] was under 100 µg/mL.

In the case of `Cc1c(-c2ccc(-c3ccccc3F)cc2)nc2ccc(F)cc2c1C(=O)O` [compound 1, brequinar], the solubility (thermodynamic) (as a rule, the concentration in solution at equilibrium with solid) in the series “Thermodynamic solubility” was found to be 407 µg/mL (≈ 1090 µM). In series [2] (IV 8 mg/m^2), the CL was 3.2 L/h/m^2; the Cmax – broadly, the peak of the concentration-time curve – was 1800 ng/mL; the Vss was 8.2 L/m^2; the t1/2 is 2.9 h. Besides, in series [2] (IV 16 mg/m^2), the CL is recorded as 4.9 L/h/m^2, the Cmax is 2700 ng/mL, the Vss is given as 11.6 L/m^2 and the t1/2 is 3.1 h. Moreover, the Vss in series [2] (IV 36 mg/m^2) is on record as 7.48 L/m^2. The compound also yielded a LipE at DHODH of 2.20.

Regarding `O=C(O)c1cc(-c2ccc(C3CCCCC3)cc2)nc2ccccc12` [compound 3, 2-(4-Cyclohexylphenyl)quinoline-4-carboxylic Acid], the solubility (thermodynamic) in “Thermodynamic solubility” was 14.5 µg/mL (≈ 43.8 µM).

Consider `O=C(O)c1cc(-c2ccc(-c3cccnc3F)cc2)nc2ccccc12` [compound 28, 2-(4-(2-Fluoropyridin-3-yl)phenyl)quinoline-4-carboxylic Acid], for which the “fold less potent than 22 (DHODH)” value at DHODH (comparator 22) came out at 9 fold. Further, on DHODH (comparator 26), the “fold less potent than 26 (DHODH)” value stood at 64 fold. The compound also gave a LipE at DHODH of 1.45.

Compound `Cc1c(-c2ccc(-c3cccnc3Cl)cc2)nc2ccc(F)cc2c1C(=O)O` [compound 41, 2-(4-(2-Chloropyridin-3-yl)phenyl)-6-fluoro-3-methylquinoline-4-carboxylic Acid] had a thermodynamic solubility in the series “Thermodynamic solubility” of 393 µg/mL (≈ 1000 µM). Also, the half-life (commonly the time in which the quantity being followed falls by half) in series [3] (female, CD-1, mouse, plasma, intravenous, oral) lay within 2.73 to 2.78 h. In series [3] (mice, PO 20 mg/kg), the CL-F was 9.25 mL/min/kg and the Vz_F is 2.226 L/kg.

`Cc1c(-c2ccc(-c3ccccc3)cc2)nc2ncccc2c1C(=O)O` [compound 45, 2-([1,1′-Biphenyl]-4-yl)-3-methyl-1,8-naphthyridine-4-carboxylic Acid] gave a LipE at DHODH of 1.75.

For the compound `Cc1c(-c2ccc(-c3ccccc3)cc2)nc2cnccc2c1C(=O)O` [compound 46, 2-([1,1′-Biphenyl]-4-yl)-3-methyl-1,7-naphthyridine-4-carboxylic Acid], in the series “Thermodynamic solubility” (PBS at pH 7.4), the “fold more soluble than brequinar” value is listed as 2.5–3 ×. In “Thermodynamic solubility”, the solubility (thermodynamic) was 1050 µg/mL (≈ 3100 µM). At DHODH, this compound yielded a LipE of 3.39.

Regarding `Cc1c(-c2ccc(-c3ccccc3)cc2)nc2ccncc2c1C(=O)O` [compound 47, 2-([1,1′-Biphenyl]-4-yl)-3-methyl-1,6-naphthyridine-4-carboxylic Acid], the LipE on DHODH was found to be 1.39.

At DHODH, `Cc1c(-c2ccc(-c3ccccc3)cc2)nc2cnc(C(F)(F)F)cc2c1C(=O)O` [compound 48, 2-([1,1′-Biphenyl]-4-yl)-3-methyl-6-(trifluoromethyl)-1,7-naphthyridine-4-carboxylic Acid] showed a LipE of 2.63.

As to `Cc1c(-c2ccc(-c3cccnc3Cl)cc2)nc2cnccc2c1C(=O)O` [compound 49, 2-(4-(2-Chloropyridin-3-yl)phenyl)-3-methyl-1,7-naphthyridine-4-carboxylic Acid], on DHODH, the LipE is on record as 3.46.

Compound `Cc1ccc(-c2ccc(-c3nc4cnccc4c(C(=O)O)c3C)cc2)c(Cl)n1` [compound 50, 2-(4-(2-Chloro-6-methylpyridin-3-yl)phenyl)-3-methyl-1,7-naphthyridine-4-carboxylic Acid] showed a LipE on DHODH of 1.65.

In turn, `Cc1c(-c2ccc(-c3cccnc3Cl)cc2)nc2cnc(C(F)(F)F)cc2c1C(=O)O` [compound 51, 2-(4-(2-Chloropyridin-3-yl)phenyl)-3-methyl-6-(trifluoromethyl)-1.7-naphthyridine-4-carboxylic Acid] returned a LipE at DHODH of 2.69.

As for `Cc1c(-c2ccc(-c3ccccc3F)cc2)nc2cnc(C(F)(F)F)cc2c1C(=O)O` [compound 52, 2-(2’-Fluoro-[1,1’-biphenyl]-4-yl)-3-methyl-6-(trifluoromethyl)-1.7-naphthyridine-4-carboxylic Acid], the LipE on DHODH is recorded as 2.74. Moreover, the “fold more potent than brequinar in the MTT assay” value in the series on MIA PaCa-2 and in the series on HCT-116 was “at least 2 fold” throughout.
